These results are taken from patent US20110280886A1, “TREATING CANCER BY MODULATING MNK” (UNIVERSITY HOSPITAL BASEL, priority 2008, published 2011).

For one assay, the target named is human Mnk2 protein (Homo sapiens, UniProt Q9HBH9). The following applies: described in WO 02/103361; cited from earlier work.
In a further assay the test system is BS125 cells. The assay can be described thus: MTT-based cell proliferation assay, BS125 cells. The following applies: 10 μM CGP57380 with increasing amounts of rapamycin, 5 days after treatment. Set-up: species or system human. As for the experimental part:
(§1) Cell proliferation was assayed using MTT-based method 5 days after treatment. Growth in untreated cells was used as a reference. Data shown are the mean±SD values of at least three separate experiments.
(§2) Human brain tumor cell lines; BS125 and LN319 were derived from human patients. The “BS” series were generated at the University of Basel, Switzerland while the “LN” series was generated in Lausanne, Switzerland (Ishii et al., […], Brain Pathol. 9:469-79). These cells were cultured in DMEM supplemented with 10% FCS and standard antibiotics in an incubator at 37° C. and 5% CO2 humidified atmosphere. Transfection was accomplished using Lipofectamine (Invitrogen) according to the supplier's instructions. For overexpression experiments, previously reported MNK1-Flag construct (Knauf et al., 2001, Mol Cell Biol. 21:5500-11) were used. […]
(§3) For cell proliferation MTT-based assays in 96-well plates, about ˜5000 cells were seeded 1 day before drug treatment. […] The number of viable cells was measured using CellTiter 96® AQueous Non-Radioactive Cell Proliferation Assay (Promega) used according to manufacturer's instruction. In addition, cell growth was also monitored by counting cell number with a Vi-Cell XR cell viability analyzer (Beckman Coulter). […] Cells were counted every day over a 5-day period.

The next assay deals with LN319 cells. Kind of assay: MTT-based cell proliferation assay, LN319 cells. Details: species or system human. As to conditions: 10 μM CGP57380 with increasing amounts of rapamycin, 5 days after treatment. As for the experimental part:
as §1, §2, §3

The next assay deals with phosphorylated eIF4E. The following applies: cells transfected with Mnk2 (Mnk2a or Mnk2b) or Mnk1; cited from earlier work.

Sequence of human Mnk2 protein (Q9HBH9 whole entry): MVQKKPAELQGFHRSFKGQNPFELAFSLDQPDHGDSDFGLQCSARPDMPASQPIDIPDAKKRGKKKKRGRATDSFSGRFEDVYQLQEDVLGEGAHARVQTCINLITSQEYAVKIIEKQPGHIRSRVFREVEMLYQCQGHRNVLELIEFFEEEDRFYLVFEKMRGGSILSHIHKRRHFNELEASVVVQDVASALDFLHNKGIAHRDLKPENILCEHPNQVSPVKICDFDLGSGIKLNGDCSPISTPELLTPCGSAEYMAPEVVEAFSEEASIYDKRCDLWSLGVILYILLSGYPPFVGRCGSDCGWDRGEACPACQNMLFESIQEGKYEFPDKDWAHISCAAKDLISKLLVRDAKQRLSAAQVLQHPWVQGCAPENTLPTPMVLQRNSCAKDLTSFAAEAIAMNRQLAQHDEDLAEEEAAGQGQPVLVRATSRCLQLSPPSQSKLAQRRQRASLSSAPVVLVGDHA

For the compound `COC(=O)c1ccc(O)cc1` [4-hydroxybenzoic acid methyl ester], the “binding to human Mnk2 protein” value at human Mnk2 protein is “binds the human Mnk2 protein”.
As for `Nc1ncnc2n[nH]c(Nc3ccc(F)cc3)c12` [CGP57380], the “inhibitory effect on cell proliferation” value in the assay on BS125 cells and in the assay with LN319 cells was “significantly increases the inhibitory effect on cell proliferation” throughout. Also, the “reduction of phosphorylated eIF4E” value in the assay on phosphorylated eIF4E was “strong reduction of phosphorylated eIF4E”.
